Key:
Experiment in all cases: relative viability (nuclei count vs DMSO), 5 days (fraction); higher = more cells survive
NCI-H650 = tested on: NCI-H650
How it was run: (§1)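 Each reported value is a median over duplicate plates. It expresses relative viability: treated-well nuclei count divided by vehicle-well nuclei count. Lung cancer cell lines in 1536-well plates were dosed by pin tool a day after seeding, alone with one drug or with a fixed anchor-drug dose plus five library-drug doses (not always all listed) in √10 steps, and nuclei were counted after 5 days.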

NCI-H1915 = tested on: NCI-H1915
How it was run: as §1

PC-3 [JPC-3] = tested on: PC-3 [JPC-3]
How it was run: as §1

NCI-H1395 = tested on: NCI-H1395
How it was run: as §1

NCI-H1793 = tested on: NCI-H1793
How it was run: as §1

NCI-H1755 = tested on: NCI-H1755
How it was run: as §1

NCI-H1944 = tested on: NCI-H1944
How it was run: as §1

NCI-H322M = tested on: NCI-H322M
How it was run: as §1

LXF-289 = tested on: LXF-289
How it was run: as §1

NCI-H2170 = tested on: NCI-H2170
How it was run: as §1

BEN = tested on: BEN
How it was run: as §1

NCI-H2342 = tested on: NCI-H2342
How it was run: as §1

For CCCCCCCCCCCC1=C(O)C(=O)C=C(O)C1=O [Embelin] + CC(=O)c1c(C)c2cnc(Nc3ccc(N4CCNCC4)cn3)nc2n(C2CCCC2)c1=O [Palbociclib] (partner 0.5 µM), the relative viability (NCI-H650; first compound 0.08 µM) was 0.272, the relative viability (NCI-H650; first compound 0.8 µM) was 0.407 and the relative viability (NCI-H650; first compound 2.53 µM) was 0.34. It also gave a relative viability (NCI-H650; first compound 8 µM) of 0.313, a relative viability (NCI-H1915; first compound 0.08 µM) of 0.543 and a relative viability (NCI-H1915; first compound 0.8 µM) of 0.56. The relative viability (NCI-H1915; first compound 2.53 µM) was 0.583, the relative viability (NCI-H1915; first compound 8 µM) was 0.522 and the relative viability (PC-3 [JPC-3]; first compound 0.08 µM) was 0.518. The relative viability (PC-3 [JPC-3]; first compound 0.8 µM) was 0.543, the relative viability (PC-3 [JPC-3]; first compound 2.53 µM) was 0.571 and the relative viability (PC-3 [JPC-3]; first compound 8 µM) was 0.511. The relative viability (NCI-H1395; first compound 0.08 µM) was 0.599, the relative viability (NCI-H1395; first compound 0.8 µM) was 0.623 and the relative viability (NCI-H1395; first compound 2.53 µM) was 0.65. It also gave a relative viability (NCI-H1395; first compound 8 µM) of 0.563, a relative viability (NCI-H1793; first compound 0.08 µM) of 0.317 and a relative viability (NCI-H1793; first compound 0.8 µM) of 0.363. It also gave a relative viability (NCI-H1793; first compound 2.53 µM) of 0.411, a relative viability (NCI-H1793; first compound 8 µM) of 0.363 and a relative viability (NCI-H1755; first compound 0.08 µM) of 0.471. The relative viability (NCI-H1755; first compound 0.8 µM) was 0.483, the relative viability (NCI-H1755; first compound 2.53 µM) was 0.376 and the relative viability (NCI-H1755; first compound 8 µM) was 0.427. It also gave a relative viability (NCI-H1944; first compound 0.08 µM) of 0.346, a relative viability (NCI-H1944; first compound 0.8 µM) of 0.405 and a relative viability (NCI-H1944; first compound 2.53 µM) of 0.381. For the same compound, the relative viability (NCI-H1944; first compound 8 µM) was 0.306, the relative viability (NCI-H322M; first compound 0.08 µM) was 0.456 and the relative viability (NCI-H322M; first compound 0.8 µM) was 0.528. It also gave a relative viability (NCI-H322M; first compound 2.53 µM) of 0.493, a relative viability (NCI-H322M; first compound 8 µM) of 0.512 and a relative viability (LXF-289; first compound 0.08 µM) of 0.594. It also gave a relative viability (LXF-289; first compound 0.8 µM) of 0.59, a relative viability (LXF-289; first compound 2.53 µM) of 0.649 and a relative viability (LXF-289; first compound 8 µM) of 0.613. For the same compound, the relative viability (NCI-H2170; first compound 0.08 µM) was 0.407, the relative viability (NCI-H2170; first compound 0.8 µM) was 0.418 and the relative viability (NCI-H2170; first compound 2.53 µM) was 0.516. The relative viability (NCI-H2170; first compound 8 µM) was 0.382, the relative viability (BEN; first compound 0.08 µM) was 0.486 and the relative viability (BEN; first compound 0.8 µM) was 0.545. It also gave a relative viability (BEN; first compound 2.53 µM) of 0.486, a relative viability (BEN; first compound 8 µM) of 0.481 and a relative viability (NCI-H2342; first compound 0.08 µM) of 0.54. For the same compound, the relative viability (NCI-H2342; first compound 0.8 µM) was 0.514, the relative viability (NCI-H2342; first compound 2.53 µM) was 0.542 and the relative viability (NCI-H2342; first compound 8 µM) was 0.439.

Reference: the supplement of paper PMC10307832
